In PubChem BioAssay (NCI):
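Assay format: 96-well plates, 48-hour exposure. Definition used: TGI = concentration required for complete inhibition of growth.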 Where a SMILES comes first, the peptide text is derived from it. The star is where a group is joined. Boc = CC(C)(C)OC(=O)*

Assays:
Assay in all cases: growth of human tumour cells (NCI), 48 h
[1] = tested on: DLD-1 colon
[2] = tested on: DMS 114 small cell lung
[3] = tested on: HOP-18 NSCLC
[4] = tested on: KM20L2 colon
[5] = tested on: LXFL 529 NSCLC
[6] = tested on: M19-MEL melanoma
[7] = tested on: SNB-78 CNS
[8] = tested on: XF 498 CNS
[9] = tested on: RXF-631 renal

Row | SMILES | TGI [1] [µM] | TGI [2] [µM] | TGI [3] [µM] | TGI [4] [µM] | TGI [5] [µM] | TGI [6] [µM] | TGI [7] [µM] | TGI [8] [µM] | TGI [9] [µM]
1 | COc1cccc(NC(=O)CSc2nnc(-c3ccc(NC(C)=O)cc3)o2)c1 | > 100 | > 100 | > 100 | > 100 | > 100 | > 100 | > 100 |  | 
2 | C/C=C1\CN2CCc3c([nH]c4ccccc34)C2CC1C(=O)OC (centres undefined) | > 322 |  |  | > 322 | > 322 |  |  | > 322 | 
3 | CS(=O)(=O)c1ccc(-c2cc(-c3ccc(S(C)(=O)=O)cc3)[n+](-c3cc(-c4ccc(S(C)(=O)=O)cc4)c([O-])c(-c4ccc(S(C)(=O)=O)cc4)c3)c(-c3ccc(S(C)(=O)=O)cc3)c2)cc1 | > 100 | > 100 | > 100 | > 100 | > 100 | > 100 | > 100 |  | > 100
4 | O=C(O)c1ccc(C2COc3ccc(Cl)cc3C2)cc1 (centres undefined) | > 100 | > 100 | > 100 | > 100 | > 100 | > 100 | > 100 | > 100 | 
5 | CCn1c2ccccc2c2ccc3c(c21)C(=O)C=CC3=O | 14.9 | 21.7 | 23.2 |  | 3.56 | 25.8 | 57.5 | 12.9 | 
6 | O=c1[nH]cc(COCCCO)c(=O)[nH]1 | > 100 |  | > 100 | > 100 | > 100 | > 100 | > 100 | > 100 | 
7 | CN(N=O)C(=O)ON1C(=O)CCC1=O | > 100 | > 100 | > 100 | > 100 | > 100 | > 100 | > 100 |  | 
8 | CC1(C)OC(=O)C(C#N)=C1/C=C/c1coc2ccc(Cl)cc2c1=O | 98 | > 100 |  | > 100 | > 100 | > 100 | > 100 |  | > 100
9 | CC(=O)C(CN(CC(C)C)CC(C)C)C(c1ccccc1)c1c(O)c2ccccc2oc1=O (centres undefined) | > 100 | > 100 |  | > 100 | > 100 | > 100 |  |  | > 100
10 | O=c1nc(NC2CCCCO2)ccn1CCO (centres undefined) | > 100 | > 100 | > 100 | > 100 | > 100 | > 100 | > 100 | > 100 | > 100
11 | CC(=O)NC(CCCNC(=O)N(CCCl)N=O)C(=O)NCc1ccccc1 (centres undefined) | > 100 | > 100 | > 100 | > 100 | > 100 | > 100 |  | > 100 | 
12 | Cc1ccc(/C=C/C(=O)C(C)(C)CN2CCCCC2)cc1 |  |  |  | 10.7 | 19.4 | 31.1 | 29.7 | 25.3 | 32.1
13 | Clc1ccc(Nc2nc3ccccc3nc2-c2cccs2)cc1Cl | > 100 |  | > 100 | > 100 | > 100 | > 100 | > 100 | > 100 | > 100
14 | CCCP1(=O)C=C(C)C(=C(Cl)Cl)C(C)=C1 (centres undefined) | > 100 | > 100 | > 100 | 47.1 | > 100 | > 100 | > 100 |  | 
15 | CC(C)(C)OC(=O)NC(Cc1ccc(O)cc1)C(=O)N1CCCC1C(=O)O (stereo not drawn) (Boc-Tyr-Pro-OH; configuration not given here) | > 100 | > 100 | > 100 | > 100 | > 100 | > 100 | > 100 | > 100 | > 100
16 | O=C(CSc1nnc(Cc2ccccc2)o1)Nc1ccccc1 | > 100 | > 100 | > 100 | > 100 | > 100 | > 100 | > 100 |  | 
17 | COC(=O)c1onc(-c2c(OC)cc(OC)cc2OC)c1C(=O)OC | > 100 | > 100 | > 100 | > 100 | > 100 | > 100 | > 100 | > 100 | 
18 | c1ccc2c(c1)C1CCCCCC21N1CCOCC1 (centres undefined) | > 100 | > 100 |  | > 100 | > 100 | > 100 | > 100 |  | 
19 | CC(=O)CN(Cc1cc(C)c2c(c1)c1ccccc1n2Cc1ccccc1)S(=O)(=O)c1ccc(C)cc1 | > 100 | > 100 | > 100 |  | > 100 | > 100 | > 100 | > 100 | > 100
20 | COc1ccc2c(c1)C(=O)C1CC(=O)CCC21 (centres undefined) | > 100 | > 100 | > 100 | > 100 | > 100 | > 100 | > 100 |  | > 100
